Reference: patent publication US20240158446A1, “CYCLIC COMPOUND HAVING SELECTIVE INHIBITORY ACTION ON KRAS OVER HRAS AND NRAS” (CHUGAI SEIYAKU KABUSHIKI KAISHA, priority 2021, published 2024)

How the values were obtained:
[1] = biological target: GDP-bound HRAS wild-type protein (Homo sapiens, UniProt P01112); assay: Binding to HRAS by surface plasmon resonance (SPR), Single Cycle Kinetics; conditions: SPR, GDP-bound HRAS wild-type protein vs GDP-bound KRAS wild-type protein
[2] = biological target: GDP-bound NRAS wild-type protein (Homo sapiens, UniProt P01111); assay: Binding to NRAS by surface plasmon resonance (SPR), Single Cycle Kinetics; conditions: SPR, GDP-bound NRAS wild-type protein vs GDP-bound KRAS wild-type protein
GDP-bound NRAS wild-type protein, sequence (P01111 whole entry): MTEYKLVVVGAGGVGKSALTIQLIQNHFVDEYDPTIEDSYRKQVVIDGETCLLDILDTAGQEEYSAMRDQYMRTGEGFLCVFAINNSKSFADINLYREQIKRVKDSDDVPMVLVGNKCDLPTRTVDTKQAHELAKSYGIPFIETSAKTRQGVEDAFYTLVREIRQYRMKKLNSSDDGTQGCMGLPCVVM

GDP-bound HRAS wild-type protein, sequence (P01112 whole entry): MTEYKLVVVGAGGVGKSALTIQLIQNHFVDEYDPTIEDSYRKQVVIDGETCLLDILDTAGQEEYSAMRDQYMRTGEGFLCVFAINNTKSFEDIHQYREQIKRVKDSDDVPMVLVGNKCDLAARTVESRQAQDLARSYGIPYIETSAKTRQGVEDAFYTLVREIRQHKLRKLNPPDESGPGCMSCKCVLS

Compound	HRAS/KRAS (ratio of KD value for HRAS to KD value for KRAS) [1]	NRAS/KRAS (ratio of KD value for NRAS to KD value for KRAS) [2]
CCO[C@@H]1C[C@H]2C(=O)NC3(CCC3)C(=O)N(C)[C@@H](C3CCCC3)C(=O)N(C)[C@H](C(=O)N(C)C)CC(=O)N(C)[C@@H](CC)C(=O)N[C@@H]([C@@H](C)CC)C(=O)N(C)CC(=O)N(C)[C@H]3CC(C)=C(C)CN(C3=O)[C@@H](Cc3ccc(C(F)(F)F)cc3)C(=O)N(C)CC(=O)N[C@@H](CCc3cc(F)c(C(F)(F)F)c(F)c3)C(=O)N2C1 [PP1048]	C (A compound having a KD ratio of 0.1 or more and less than 3 is denoted as C)	C (A compound having a KD ratio of 0.1 or more and less than 3 is denoted as C)
CCO[C@@H]1C[C@H]2C(=O)NC3(CCC3)C(=O)N(C)[C@@H](C3CCCC3)C(=O)N(C)[C@H](C(=O)N(C)C)CC(=O)N(C)[C@@H](CC)C(=O)N[C@@H]([C@@H](C)CC)C(=O)N3CCC[C@H]3C(=O)N(C)[C@H]3C/C=C\CCN(C3=O)[C@@H](Cc3ccc(C(F)(F)F)cc3)C(=O)N(C)CC(=O)N[C@@H](CCc3cc(F)c(C(F)(F)F)c(F)c3)C(=O)N2C1 [PP1056]	A (a compound having 10 or more and less than 20 is denoted as A)	A (a compound having 10 or more and less than 20 is denoted as A)
CCO[C@@H]1C[C@H]2C(=O)NC3(CCC3)C(=O)N(C)[C@@H](C3CCCC3)C(=O)N(C)[C@H](C(=O)N(C)C)CC(=O)N(C)[C@@H](CC)C(=O)N[C@@H]([C@@H](C)CC)C(=O)N3CCCC[C@H]3C(=O)N(C)[C@H]3C/C=C\CCN(C3=O)[C@@H](Cc3ccc(C(F)(F)F)cc3)C(=O)N(C)CC(=O)N[C@@H](CCc3cc(F)c(C(F)(F)F)c(F)c3)C(=O)N2C1 [PP1058]	B (a compound having 3 or more and less than 10 is denoted as B)	A (a compound having 10 or more and less than 20 is denoted as A)
CCO[C@@H]1C[C@H]2C(=O)NC3(CCC3)C(=O)N(C)[C@@H](C3CCCC3)C(=O)N(C)[C@H](C(=O)N(C)C)CC(=O)N(C)[C@@H](CC)C(=O)N[C@@H]([C@@H](C)CC)C(=O)N3CC[C@@H]3C(=O)N(C)[C@H]3C/C=C\CCN(C3=O)[C@@H](Cc3ccc(C(F)(F)F)cc3)C(=O)N(C)CC(=O)N[C@@H](CCc3cc(F)c(C(F)(F)F)c(F)c3)C(=O)N2C1 [PP1064]	A (a compound having 10 or more and less than 20 is denoted as A)	A (a compound having 10 or more and less than 20 is denoted as A)
CC[C@H](C)[C@@H]1NC(=O)[C@H](CC(C)C)N(C)C(=O)C[C@@H](C(=O)N2CCOCC2)N(C)C(=O)[C@H](C2CCCC2)N(C)C(=O)C2(CCC2)NC(=O)[C@@H]2[C@H](OC)CCN2C(=O)[C@H](CCc2cc(F)c(C(F)(F)F)c(F)c2)NC(=O)CN(C)C(=O)[C@H](Cc2ccc(C(F)(F)F)cc2)N2CCCC[C@@H](C2=O)N(C)C(=O)CN(C)C1=O [PP1078]	B (a compound having 3 or more and less than 10 is denoted as B)	B (a compound having 3 or more and less than 10 is denoted as B)
CCO[C@@H]1CCN2C(=O)[C@H](CCc3cc(F)c(C(F)(F)F)c(F)c3)NC(=O)CN(C)C(=O)[C@H](Cc3ccc(C(F)(F)F)cc3)N3CCCCC[C@@H](C3=O)N(C)C(=O)CN(C)C(=O)[C@H]([C@@H](C)CC)NC(=O)[C@H](CC(C)C)N(C)C(=O)C[C@@H](C(=O)N3CCOCC3)N(C)C(=O)[C@H](C3CCCC3)N(C)C(=O)C3(CCC3)NC(=O)[C@H]12 [PP1082]	B (a compound having 3 or more and less than 10 is denoted as B)	A (a compound having 10 or more and less than 20 is denoted as A)
CCCO[C@@H]1CCN2C(=O)[C@H](CCc3cc(F)c(C(F)(F)F)c(F)c3)NC(=O)CN(C)C(=O)[C@H](Cc3ccc(C(F)(F)F)cc3)N3CCCCC[C@@H](C3=O)N(C)C(=O)CN(C)C(=O)[C@H]([C@@H](C)CC)NC(=O)[C@H](CC(C)C)N(C)C(=O)C[C@@H](C(=O)N3CCOCC3)N(C)C(=O)[C@H](C3CCCC3)N(C)C(=O)C3(CCC3)NC(=O)[C@H]12 [PP1083]	B (a compound having 3 or more and less than 10 is denoted as B)	B (a compound having 3 or more and less than 10 is denoted as B)
CC[C@H](C)[C@@H]1NC(=O)[C@H](CC(C)C)N(C)C(=O)C[C@@H](C(=O)N2CCOCC2)N(C)C(=O)[C@H](C2CCCC2)N(C)C(=O)C2(CCC2)NC(=O)[C@@H]2[C@H](OC)CCN2C(=O)[C@H](CCc2cc(F)c(C(F)(F)F)c(F)c2)NC(=O)CN(C)C(=O)[C@H](Cc2ccc(C(F)(F)F)cc2)N2CCCC[C@@H](C2=O)N(C)C(=O)CN(C)C1=O [PP1084]	B (a compound having 3 or more and less than 10 is denoted as B)	C (A compound having a KD ratio of 0.1 or more and less than 3 is denoted as C)
CCO[C@@H]1C[C@H]2C(=O)NC3(CCC3)C(=O)N(C)[C@@H](C3CCCC3)C(=O)N(C)[C@H](C(=O)N3C4CCC3COC4)CC(=O)N(C)[C@@H](CC)C(=O)N[C@@H]([C@@H](C)CC)C(=O)N(C)CC(=O)N(C)[C@H]3C/C=C\CCN(C3=O)[C@@H](Cc3ccc(C(F)(F)F)cc3)C(=O)N(C)CC(=O)N[C@@H](CCc3cc(F)c(C(F)(F)F)c(F)c3)C(=O)N2C1 [PP1093]	A (a compound having 10 or more and less than 20 is denoted as A)	AA (a compound having 20 or more is denoted as AA)
CC[C@H](C)[C@@H]1NC(=O)[C@H](CC(C)C)N(C)C(=O)C[C@@H](C)N(C)C(=O)[C@H](C2CCCC2)N(C)C(=O)C2(CCC2)NC(=O)[C@@H]2CCCN2C(=O)[C@H](CCc2cc(F)c(C(F)(F)F)c(F)c2)NC(=O)CN(C)C(=O)[C@H](Cc2ccc(C(F)(F)F)cc2)N2CC/C=C\C[C@@H](C2=O)N(C)C(=O)CN(C)C1=O [PP1099]	A (a compound having 10 or more and less than 20 is denoted as A)	B (a compound having 3 or more and less than 10 is denoted as B)
CCO[C@@H]1C[C@H]2C(=O)NC3(CCC3)C(=O)N(C)[C@@H](C3CCCC3)C(=O)N(C)[C@H](C)CC(=O)N(C)[C@@H](CC(C)C)C(=O)N[C@@H]([C@@H](C)CC)C(=O)N(C)CC(=O)N(C)[C@H]3C/C=C\CCN(C3=O)[C@@H](Cc3ccc(C(F)(F)F)cc3)C(=O)N(C)CC(=O)N[C@@H](CCc3cc(F)c(C(F)(F)F)c(F)c3)C(=O)N2C1 [PP1100]	B (a compound having 3 or more and less than 10 is denoted as B)	B (a compound having 3 or more and less than 10 is denoted as B)
